How the values were obtained:
[1] = system: minimal muscular or neurological impairment (rotarod); test: Mouse rotarod assay; assay type: in vivo, mice
Method: To assess a compound's undesirable side effects (toxicity), animals can be monitored for overt signs of impaired neurological or muscular function. In mice, the rotarod procedure (Dunham and Miya, J. Am. Pharmacol. Assoc. 46:208-209 (1957)) is used to disclose minimal muscular or neurological impairment (MMI). When a mouse is placed on a rod that rotates at a speed of 6 rpm, the animal can maintain its equilibrium for long periods of time. The animal is considered toxic if it falls off this rotating rod three times during a 1-min period.

[2] = molecular target: CYP2C9 (Homo sapiens, UniProt P11712); test: cytochrome inhibition; assay type: in vitro ADME; settings: read-out: inhibition of cytochrome 2C9
Chain of CYP2C9 (P11712 whole entry): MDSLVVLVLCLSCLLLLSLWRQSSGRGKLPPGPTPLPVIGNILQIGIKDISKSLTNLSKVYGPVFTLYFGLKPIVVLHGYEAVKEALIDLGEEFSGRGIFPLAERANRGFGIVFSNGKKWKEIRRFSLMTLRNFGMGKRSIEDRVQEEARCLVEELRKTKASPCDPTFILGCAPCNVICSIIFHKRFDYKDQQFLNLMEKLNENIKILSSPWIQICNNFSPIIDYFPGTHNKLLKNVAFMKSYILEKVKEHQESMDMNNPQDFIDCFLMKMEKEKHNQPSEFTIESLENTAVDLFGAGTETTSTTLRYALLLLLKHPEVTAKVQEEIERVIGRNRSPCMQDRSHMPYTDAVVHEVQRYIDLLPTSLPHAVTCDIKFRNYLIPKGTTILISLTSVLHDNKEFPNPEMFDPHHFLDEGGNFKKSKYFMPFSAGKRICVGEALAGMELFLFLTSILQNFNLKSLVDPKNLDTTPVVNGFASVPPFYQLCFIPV
Excerpt: (§1) In addition to being able to modulate a particular calcium channel (e.g., CaV 3.1, CaV 3.2, or CaV 3.3), it may be desirable that the compound has very low activity with respect to the hERG K^+ channel, which is expressed in the heart: compounds that block this channel with high potency may cause reactions which are fatal. See, e.g., Bowlby et al., “hERG (KCNH2 or KV11.1 K^+ Channels: Screening for Cardiac Arrhythmia Risk,” Curr. Drug Metab. 9(9):965-70 (2008)). […] Such compounds may be particularly useful in the methods described herein.

[3] = molecular target: CYP3A4 (Homo sapiens, UniProt P08684); test: cytochrome inhibition; assay type: in vitro ADME; settings: read-out: inhibition of cytochrome 3A4
Chain of CYP3A4 (P08684 whole entry): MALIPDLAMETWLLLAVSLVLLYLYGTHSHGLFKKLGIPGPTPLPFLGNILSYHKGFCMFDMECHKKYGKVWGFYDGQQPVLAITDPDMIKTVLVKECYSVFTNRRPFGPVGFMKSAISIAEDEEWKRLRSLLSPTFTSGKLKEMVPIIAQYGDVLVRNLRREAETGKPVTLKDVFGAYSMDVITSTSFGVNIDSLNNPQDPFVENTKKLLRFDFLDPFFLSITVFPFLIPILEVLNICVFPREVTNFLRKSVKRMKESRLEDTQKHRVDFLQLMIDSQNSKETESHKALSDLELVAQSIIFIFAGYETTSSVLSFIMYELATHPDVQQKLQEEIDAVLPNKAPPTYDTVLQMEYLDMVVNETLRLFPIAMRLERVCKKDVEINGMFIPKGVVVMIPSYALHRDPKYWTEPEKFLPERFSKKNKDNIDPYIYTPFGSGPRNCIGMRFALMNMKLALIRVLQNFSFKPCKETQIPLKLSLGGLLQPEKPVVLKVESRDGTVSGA
Excerpt: as §1

[4] = molecular target: CYP2D6 (Homo sapiens, UniProt P10635); test: cytochrome inhibition; assay type: in vitro ADME; settings: read-out: inhibition of cytochrome 2D6
Chain of CYP2D6 (P10635 whole entry): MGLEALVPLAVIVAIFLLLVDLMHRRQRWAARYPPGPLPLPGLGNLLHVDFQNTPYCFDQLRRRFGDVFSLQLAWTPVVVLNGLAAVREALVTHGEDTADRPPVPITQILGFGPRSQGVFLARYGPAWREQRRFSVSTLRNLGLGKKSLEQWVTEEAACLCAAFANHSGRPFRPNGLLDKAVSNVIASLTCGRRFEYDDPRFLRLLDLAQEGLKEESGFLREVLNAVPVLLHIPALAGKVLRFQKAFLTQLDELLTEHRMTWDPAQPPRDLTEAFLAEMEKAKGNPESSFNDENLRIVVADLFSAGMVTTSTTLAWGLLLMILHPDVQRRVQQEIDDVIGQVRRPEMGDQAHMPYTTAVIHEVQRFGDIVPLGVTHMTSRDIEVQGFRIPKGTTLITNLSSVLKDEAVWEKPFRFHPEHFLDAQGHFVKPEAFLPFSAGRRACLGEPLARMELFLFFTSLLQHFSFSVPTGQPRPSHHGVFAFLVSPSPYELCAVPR

[5] = molecular target: T1, α1G (CaV 3.1) (Homo sapiens, UniProt O43497); test: T-type calcium channel block, whole cell patch clamp; assay type: cell-based; settings: HEK cells, mainly non-inactivated protocol; values above 10,000 nM represented as 10000
T1 construct: expressed in transfected cells; host or cells: HEK 293
Procedure, shortened: (§2)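 HEK293 cells stably expressing human T-type channels, whole-cell patch clamp; compounds in external solution with 0.1-0.01% DMSO, applied by gravity. Mainly non-inactivating protocol: holding −110 mV, 1 s pre-pulse −100 mV, 50 ms test pulse −40 mV (inactivated protocol uses ~−85 mV pre-pulse); IC50 reported.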

[6] = molecular target: T2, α1H (CaV 3.2) (Homo sapiens, UniProt O95180); test: as above; assay type: cell-based; settings: HEK cells, mainly non-inactivated protocol; values above 10,000 nM represented as 10000
T2 construct: expressed in transfected cells; host or cells: HEK 293
T2 sequence (O95180 whole entry): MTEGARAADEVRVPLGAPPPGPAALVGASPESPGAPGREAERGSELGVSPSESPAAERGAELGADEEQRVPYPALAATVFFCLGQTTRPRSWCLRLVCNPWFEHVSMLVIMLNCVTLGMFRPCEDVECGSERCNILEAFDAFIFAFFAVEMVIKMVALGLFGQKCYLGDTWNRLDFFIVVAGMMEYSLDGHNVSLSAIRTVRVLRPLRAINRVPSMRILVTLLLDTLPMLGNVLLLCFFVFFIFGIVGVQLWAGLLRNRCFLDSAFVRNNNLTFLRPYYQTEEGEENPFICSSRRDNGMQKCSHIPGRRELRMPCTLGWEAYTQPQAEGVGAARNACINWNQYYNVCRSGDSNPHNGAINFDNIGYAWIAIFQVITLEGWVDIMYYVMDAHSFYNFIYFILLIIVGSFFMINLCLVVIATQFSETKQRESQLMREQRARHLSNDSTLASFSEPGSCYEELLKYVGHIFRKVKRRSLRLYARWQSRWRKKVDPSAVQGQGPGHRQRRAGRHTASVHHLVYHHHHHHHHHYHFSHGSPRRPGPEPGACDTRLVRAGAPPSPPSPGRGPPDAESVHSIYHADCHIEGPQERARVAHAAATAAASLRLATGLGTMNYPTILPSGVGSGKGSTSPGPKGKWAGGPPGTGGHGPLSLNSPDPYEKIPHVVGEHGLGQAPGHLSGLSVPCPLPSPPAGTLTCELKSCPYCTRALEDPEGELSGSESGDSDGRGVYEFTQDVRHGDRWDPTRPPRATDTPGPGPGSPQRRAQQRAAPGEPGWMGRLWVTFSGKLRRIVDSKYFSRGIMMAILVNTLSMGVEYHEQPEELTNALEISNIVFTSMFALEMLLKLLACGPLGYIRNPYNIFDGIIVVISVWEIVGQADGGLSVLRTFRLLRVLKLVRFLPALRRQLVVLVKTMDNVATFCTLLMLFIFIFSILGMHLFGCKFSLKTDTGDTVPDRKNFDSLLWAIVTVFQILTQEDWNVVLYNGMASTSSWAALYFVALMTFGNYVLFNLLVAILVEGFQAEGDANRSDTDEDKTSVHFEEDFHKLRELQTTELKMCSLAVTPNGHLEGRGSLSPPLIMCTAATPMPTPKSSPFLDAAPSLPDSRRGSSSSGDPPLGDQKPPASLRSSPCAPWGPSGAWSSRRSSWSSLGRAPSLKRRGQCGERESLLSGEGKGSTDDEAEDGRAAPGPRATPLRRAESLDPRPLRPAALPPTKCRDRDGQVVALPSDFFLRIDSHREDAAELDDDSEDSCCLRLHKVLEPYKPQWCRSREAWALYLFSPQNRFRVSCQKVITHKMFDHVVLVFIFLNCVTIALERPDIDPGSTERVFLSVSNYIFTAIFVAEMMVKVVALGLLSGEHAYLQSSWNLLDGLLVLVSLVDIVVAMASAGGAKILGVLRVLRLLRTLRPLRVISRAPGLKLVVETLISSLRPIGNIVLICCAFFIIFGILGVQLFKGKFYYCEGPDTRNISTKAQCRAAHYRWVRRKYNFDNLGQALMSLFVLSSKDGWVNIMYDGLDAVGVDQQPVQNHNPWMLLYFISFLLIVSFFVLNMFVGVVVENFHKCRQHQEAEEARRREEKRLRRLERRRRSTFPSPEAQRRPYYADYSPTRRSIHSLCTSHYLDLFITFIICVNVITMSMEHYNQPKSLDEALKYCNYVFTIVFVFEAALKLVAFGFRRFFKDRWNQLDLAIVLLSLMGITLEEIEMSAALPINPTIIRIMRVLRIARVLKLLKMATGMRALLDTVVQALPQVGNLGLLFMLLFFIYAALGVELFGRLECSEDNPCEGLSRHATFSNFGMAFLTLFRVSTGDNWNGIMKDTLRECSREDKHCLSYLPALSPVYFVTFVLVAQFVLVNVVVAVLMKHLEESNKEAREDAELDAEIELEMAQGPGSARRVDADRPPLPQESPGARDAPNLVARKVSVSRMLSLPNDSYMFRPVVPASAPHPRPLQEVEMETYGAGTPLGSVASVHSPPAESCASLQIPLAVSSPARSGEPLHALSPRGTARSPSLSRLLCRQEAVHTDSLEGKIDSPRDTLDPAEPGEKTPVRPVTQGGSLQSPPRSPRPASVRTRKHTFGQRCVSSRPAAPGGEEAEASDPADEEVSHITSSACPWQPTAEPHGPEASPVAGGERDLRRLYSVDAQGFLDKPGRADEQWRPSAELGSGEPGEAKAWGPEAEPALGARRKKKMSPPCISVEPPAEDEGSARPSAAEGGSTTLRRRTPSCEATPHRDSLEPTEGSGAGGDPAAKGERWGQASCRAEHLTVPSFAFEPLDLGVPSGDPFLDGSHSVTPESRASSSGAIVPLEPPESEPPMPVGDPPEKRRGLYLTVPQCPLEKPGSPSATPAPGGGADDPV
Procedure, shortened: as §2

[7] = molecular target: hERG K+ channel (Homo sapiens, UniProt Q12809); test: hERG activity
Chain of hERG K+ channel (Q12809 whole entry): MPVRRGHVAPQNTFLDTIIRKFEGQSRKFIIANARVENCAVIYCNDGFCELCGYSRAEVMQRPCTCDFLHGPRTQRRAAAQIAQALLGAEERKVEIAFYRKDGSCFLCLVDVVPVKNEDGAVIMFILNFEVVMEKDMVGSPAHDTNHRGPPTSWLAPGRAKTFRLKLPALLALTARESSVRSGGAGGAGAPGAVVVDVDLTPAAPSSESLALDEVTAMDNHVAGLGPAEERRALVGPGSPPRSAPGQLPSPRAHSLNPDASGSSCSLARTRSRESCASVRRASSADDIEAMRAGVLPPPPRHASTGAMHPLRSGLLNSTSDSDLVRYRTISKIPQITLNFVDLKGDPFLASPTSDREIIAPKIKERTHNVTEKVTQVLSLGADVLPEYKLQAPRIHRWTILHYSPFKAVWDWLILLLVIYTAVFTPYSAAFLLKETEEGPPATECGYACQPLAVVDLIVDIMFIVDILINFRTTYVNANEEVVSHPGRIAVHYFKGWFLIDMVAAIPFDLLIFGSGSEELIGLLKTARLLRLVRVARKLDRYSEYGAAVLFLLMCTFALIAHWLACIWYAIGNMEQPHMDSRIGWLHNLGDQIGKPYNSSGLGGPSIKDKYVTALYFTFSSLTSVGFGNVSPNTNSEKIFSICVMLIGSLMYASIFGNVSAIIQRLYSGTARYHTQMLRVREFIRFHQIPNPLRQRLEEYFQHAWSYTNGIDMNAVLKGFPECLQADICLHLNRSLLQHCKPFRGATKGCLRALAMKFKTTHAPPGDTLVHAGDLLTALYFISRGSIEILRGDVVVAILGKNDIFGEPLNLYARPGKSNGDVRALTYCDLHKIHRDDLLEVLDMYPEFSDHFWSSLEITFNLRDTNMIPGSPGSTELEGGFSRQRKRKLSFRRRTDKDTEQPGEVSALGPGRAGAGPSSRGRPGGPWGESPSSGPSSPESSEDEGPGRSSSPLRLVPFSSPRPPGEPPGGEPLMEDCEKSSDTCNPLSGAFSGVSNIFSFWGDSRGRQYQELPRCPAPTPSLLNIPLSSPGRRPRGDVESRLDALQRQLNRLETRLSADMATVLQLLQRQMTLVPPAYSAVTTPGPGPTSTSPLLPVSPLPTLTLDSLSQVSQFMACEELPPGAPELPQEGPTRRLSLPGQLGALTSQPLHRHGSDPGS
Excerpt: as §1

Molecule	Rotarod Assay (% impaired) ([1]; 0.25 hr) [%]	Rotarod Assay (% impaired) ([1]; 0.5 hr) [%]	Rotarod Assay (% impaired) ([1]; 1 hr) [%]	Rotarod Assay (% impaired) ([1]; 2 hr) [%]	Rotarod Assay (% impaired) ([1]; 4 hr) [%]	inhibition at 10 micromolar [2] [%]	inhibition at 10 micromolar [3] [%]	inhibition at 10 micromolar [4] [%]	IC50 [5] [µM]	IC50 [6] [µM]	hERG activity [7]
N[C@@H]1CCCC[C@H]1C(=O)N1CCC(CC(=O)Nc2cc(C(F)(F)F)cc(C(F)(F)F)c2)CC1 (racemic) [Compound 3, trans-2-(1-(2-aminocyclohexanecarbonyl)piperidin-4-yl)-N-(3,5-bis(trifluoromethyl)phenyl)acetamide]	0	75	100	75	50	< 10	< 10	< 10	> 10	0.06	negligible
N-(3,5- bis(trifluoromethyl) phenyl)-2-(1- (piperidine-3- carbonyl)piperidin-4- yl)acetamide [Compound 2]	25	50	100	100	50	–	–	–	–	0.35	–
